From patent publication US6696494B2, “α-hydroxyarylbutanamine inhibitors of aspartyl protease” (Enanta Pharmaceuticals, Inc., priority 2001, dated 2004) come the findings set out here.

Structures are written as SMILES.

This test concerns the target HIV-1 protease (Human immunodeficiency virus type 1 group M subtype B, UniProt P04585). In words: Inhibition of microbial expressed viral protease (HIV-1 protease), method of Toth and Marshall. It counts as biochemical. How it is done: Biological Assay for Inhibition of Microbial Expressed Viral Protease
The inhibition constants against HIV-1 protease were measured using the method described by M. V. Toth and G. R. Marshall, Int. J. Peptide protein Res., 1990, 544. The method described M. W. Pennington et al., Peptides 1990, Gimet, E. and D. Andrew, Eds., Escom; Leiden, Netherlands (1990) may also be used. The potency is measured as IC50in μM. The person of skill would accept these tests as predictive of the compounds' utility in vivo to treat HIV infected patients.
For the compound `CC(C)CNC(=O)c1ccccc1CC[C@@H](O)[C@H](Cc1ccccc1)NC(=O)OC(C)(C)C` [Example 000156], the half-maximal inhibitory concentration (IC50) was less than 0.1 µM.

With `CC(C)(C)NC(=O)c1ccccc1CC[C@@H](O)[C@H](Cc1ccccc1)NC(=O)O[C@H]1CCOC1` [Example 000180], the IC50 was less than 0.1 µM.

Consider `CCOC(=O)NC(Cc1ccccc1)C(O)C=Cc1ccccc1C(=O)NC(C)(C)C` (centres unmarked) [Example 000207], for which the IC50 was 0.1 to 10 µM.

`CC(C)(C)NC(=O)c1ccccc1CC[C@@H](O)[C@H](Cc1ccccc1)NC(=O)N1c2ccccc2Sc2ccccc21` [Example 00241] came in with an IC50 greater than 10 µM.

`C[C@H](O)C(=O)N[C@@H](Cc1ccccc1)[C@H](O)CCc1ccccc1C(=O)NC(C)(C)C` [Example 000242] yielded an IC50 of 0.1 to 10 µM.

As for `CC(Oc1ccccc1)C(=O)NC(Cc1ccccc1)C(O)CCc1ccccc1C(=O)NC(C)(C)C` (centres unmarked) [Example 000243], the IC50 lay in the range of 0.1 to 10 µM.

Take `CC(C)(C)NC(=O)c1ccccc1CC[C@@H](O)[C@H](Cc1ccccc1)NC(=O)COc1ccccc1` [Example 000244]: the IC50 fell in the range of 0.1 to 10 µM.

Compound `CC(C)(C)NC(=O)c1ccccc1CC[C@@H](O)[C@H](Cc1ccccc1)NC(=O)c1ccccc1` [Example 000245] displayed an IC50 of 0.1 to 10 µM.

As for `CCCCNC(=O)c1ccccc1CC[C@@H](O)[C@H](Cc1ccccc1)NC(=O)OC(C)(C)C` [Example 000344], the IC50 fell in the range of 0.1 to 10 µM.

`CC(C)(C)NC(=O)c1ccccc1CC[C@@H](O)[C@H](Cc1ccccc1)NC(=O)COc1ccc2ccccc2c1` [Example 000760] came in with an IC50 of 0.1 to 10 µM.

The compound `CC(C)(C)NC(=O)c1ccccc1CC[C@@H](O)[C@H](Cc1ccccc1)NC(=O)Cc1ccccc1` [Example 00762] gave an IC50 of 0.1 to 10 µM.

`CC(C)(C)NC(=O)c1ccccc1CC[C@@H](O)[C@H](Cc1ccccc1)NC(=O)CCc1ccccc1` [Example 000763] gave an IC50 of 0.1 to 10 µM.

`CC(C)CCNC(=O)c1ccccc1CC[C@@H](O)[C@H](Cc1ccccc1)NC(=O)OC(C)(C)C` [Example 000766] showed an IC50 of 0.1 to 10 µM.

Regarding `CCOC(=O)N[C@@H](Cc1ccccc1)[C@H](O)CCc1ccccc1C(=O)NCCC(C)C` [Example 000770], the concentration for half-maximal inhibition (IC50) is 0.1 to 10 µM.

With `CCNC(=O)N[C@@H](Cc1ccccc1)[C@H](O)CCc1ccccc1C(=O)NC(C)(C)C` [Example 000771], the IC50 lay in the range of 0.1 to 10 µM.

Turning to `CC(C)(C)NC(=O)c1ccccc1CC[C@@H](O)[C@H](Cc1ccccc1)NC(=O)NC(=O)CCl` [Example 000869], the IC50 was greater than 10 µM.

`CCc1ccc(S(=O)(=O)N[C@@H](Cc2ccccc2)[C@H](O)CCc2ccccc2C(=O)NC(C)(C)C)cc1` [Example 000874] had an IC50 of 0.1 to 10 µM.

Compound `CCC(C)(C)c1ccc(S(=O)(=O)N[C@@H](Cc2ccccc2)[C@H](O)CCc2ccccc2C(=O)NC(C)(C)C)cc1` [Example 000875] came in with an IC50 of 0.1 to 10 µM.

`CC(C)(C)NC(=O)c1ccccc1CC[C@@H](O)[C@H](Cc1ccccc1)NS(=O)(=O)c1ccc(C#N)cc1` [Example 000876]: the IC50 was in the range of 0.1 to 10 µM.

In the case of `CC(C)(C)NC(=O)c1ccccc1CC[C@@H](O)[C@H](Cc1ccccc1)NS(=O)(=O)c1ccc(C(F)(F)F)cc1` [Example 000877], the IC50 lay in the range of 0.1 to 10 µM.

`CC(C)(C)NC(=O)c1ccccc1CC[C@@H](O)[C@H](Cc1ccccc1)NS(=O)(=O)c1cccc2cccnc12` [Example 00878]: the IC50 was in the range of 0.1 to 10 µM.

The compound `CC(C)(C)NC(=O)c1ccccc1CC[C@@H](O)[C@H](Cc1ccccc1)NS(=O)(=O)c1ccc(Br)c(Cl)n1` [Example 000879] showed an IC50 of 0.1 to 10 µM.

`CC(C)(C)NC(=O)c1ccccc1CC[C@@H](O)[C@H](Cc1ccccc1)NS(=O)(=O)c1cccs1` [Example 000880] showed an IC50 of 0.1 to 10 µM.

Compound `CC(C)S(=O)(=O)N[C@@H](Cc1ccccc1)[C@H](O)CCc1ccccc1C(=O)NC(C)(C)C` [Example 000881] registered an IC50 of 0.1 to 10 µM.

As to `CC(C)(C)NC(=O)c1ccccc1CC[C@@H](O)[C@H](Cc1ccccc1)NC(=O)NC1CCCCC1` [Example 000882], the IC50 was greater than 10 µM.

`CC(C)(C)NC(=O)c1ccccc1CC[C@@H](O)[C@H](Cc1ccccc1)NC(=O)Nc1ccc([N+](=O)[O-])cc1` [Example 000889] gave an IC50 of 0.1 to 10 µM.

Turning to `CCCCCNC(=O)N[C@@H](Cc1ccccc1)[C@H](O)CCc1ccccc1C(=O)NC(C)(C)C` [Example 000890], the IC50 is 0.1 to 10 µM.

`CCCCNC(=O)N[C@@H](Cc1ccccc1)[C@H](O)CCc1ccccc1C(=O)NC(C)(C)C` [Example 000891] gave an IC50 of 0.1 to 10 µM.

On to `CC(C)NC(=O)N[C@@H](Cc1ccccc1)[C@H](O)CCc1ccccc1C(=O)NC(C)(C)C` [Example 000892], for which the IC50 is 0.1 to 10 µM.

As to `CCc1ccc(NC(=O)N[C@@H](Cc2ccccc2)[C@H](O)CCc2ccccc2C(=O)NC(C)(C)C)cc1` [Example 000893], the IC50 lay in the range of 0.1 to 10 µM.

`Cc1ccc(CO)cc1C(=O)N[C@@H](Cc1ccccc1)[C@H](O)CCc1ccccc1C(=O)NC(C)(C)C` [Example 000895]: the IC50 was less than 0.1 µM.

`COc1ccc(Br)c(C(=O)N[C@@H](Cc2ccccc2)[C@H](O)CCc2ccccc2C(=O)NC(C)(C)C)c1` [Example 000900] returned a half-maximal inhibitory concentration (IC50) of 0.1 to 10 µM.

Turning to `CC(C)(C)NC(=O)c1ccccc1CC[C@@H](O)[C@H](Cc1ccccc1)NC(=O)c1ccc(F)cc1F` [Example 000901], the IC50 is 0.1 to 10 µM.

`CC(C)(C)NC(=O)c1ccccc1CC[C@@H](O)[C@H](Cc1ccccc1)NC(=O)c1ccc(Cl)cc1Cl` [Example 000902] showed an IC50 of 0.1 to 10 µM.

As for `CC(C)(C)NC(=O)c1ccccc1CC[C@@H](O)[C@H](Cc1ccccc1)NC(=O)c1ccc(N)cc1Cl` [Example 000944], the IC50 is greater than 10 µM.

For the compound `Cc1c(N)cccc1C(=O)N[C@@H](Cc1ccccc1)[C@H](O)CCc1ccccc1C(=O)NC(C)(C)C` [Example 000945], the half-maximal inhibitory concentration (IC50) was greater than 10 µM.

As for `CC(C)(C)NC(=O)c1ccccc1CC[C@@H](O)[C@H](Cc1ccccc1)NC(=O)c1cccc([N+](=O)[O-])c1Br` [Example 000946], the IC50 is greater than 10 µM.

On to `CC(C)(C)NC(=O)c1ccccc1CCC(O)C(Cc1ccccc1)NC(=O)C(F)=Cc1ccccc1` (centres unmarked) [Example 000947], for which the IC50 was greater than 10 µM.

`CC(C)(C)NC(=O)c1ccccc1CC[C@@H](O)[C@H](Cc1ccccc1)NC(=O)c1cc(F)cc(F)c1` [Example 000948] had an IC50 greater than 10 µM.

For the compound `Cc1ccc(C(=O)C=CC(=O)NC(Cc2ccccc2)C(O)CCc2ccccc2C(=O)NC(C)(C)C)cc1` (centres unmarked) [Example 000950], the IC50 is greater than 10 µM.

The compound `Cc1cccc(C)c1C(=O)N[C@@H](Cc1ccccc1)[C@H](O)CCc1ccccc1C(=O)NC(C)(C)C` [Example 000951] showed a 50% inhibitory concentration (IC50) of less than 0.1 µM.

For `CN(C)c1ccc(C(=O)N[C@@H](Cc2ccccc2)[C@H](O)CCc2ccccc2C(=O)NC(C)(C)C)cc1` [Example 000954], the IC50 was greater than 10 µM.

Compound `COc1cccc(OC)c1C(=O)N[C@@H](Cc1ccccc1)[C@H](O)CCc1ccccc1C(=O)NC(C)(C)C` [Example 000966] returned an IC50 of 0.1 to 10 µM.

Compound `CC(C)(C)NC(=O)c1ccccc1CC[C@@H](O)[C@H](Cc1ccccc1)NC(=O)c1cc(Cl)cc(Cl)c1` [Example 000967] had an IC50 of 0.1 to 10 µM.

With `CC(C)(C)NC(=O)c1ccccc1CC[C@@H](O)[C@H](Cc1ccccc1)NC(=O)c1ccccc1C(=O)c1ccccc1` [Example 00968], the IC50 was 0.1 to 10 µM.

For `CC(C)(C)NC(=O)c1ccccc1CC[C@@H](O)[C@H](Cc1ccccc1)NC(=O)c1c(F)cccc1F` [Example 000969], the 50% inhibitory concentration (IC50) is 0.1 to 10 µM.

With `CC(C)(C)NC(=O)c1ccccc1CC[C@@H](O)[C@H](Cc1ccccc1)NC(=O)c1cc(N)ccc1Cl` [Example 000971], the IC50 was in the range of 0.1 to 10 µM.

With `Cc1c(O)cccc1C(=O)N[C@@H](Cc1ccccc1)[C@H](O)CCc1ccccc1C(=O)NC(C)(C)C` [Example 000972], the IC50 was less than 0.1 µM.

Regarding `CC(C)(C)NC(=O)c1ccccc1CC[C@@H](O)[C@H](Cc1ccccc1)NC(=O)CCC(=O)c1ccc(F)cc1` [Example 000973], the IC50 was less than 0.1 µM.

Compound `CC(C)(C)NC(=O)c1ccccc1CC[C@@H](O)[C@H](Cc1ccccc1)NC(=O)c1cc(=O)c2ccccc2o1` [Example 000974] had an IC50 greater than 10 µM.

Compound `Cc1cccc(C)c1OCC(=O)N[C@@H](Cc1ccccc1)[C@H](O)CCc1ccccc1C(=O)NC(C)(C)C` [Example 000987] gave an IC50 of less than 0.1 µM.

Compound `CC(C)(C)NC(=O)c1ccccc1CC[C@@H](O)[C@H](Cc1ccccc1)NC(=O)N(c1ccccc1)c1ccccc1` [Example 001006] displayed an IC50 of 0.1 to 10 µM.

The compound `CC(C)(C)NC(=O)c1ccccc1CC[C@@H](O)[C@H](Cc1ccccc1)NC(=O)N1CCOCC1` [Example 001008] had an IC50 of 0.1 to 10 µM.

In the case of `CC(C)(C)NC(=O)c1ccccc1CC[C@@H](O)[C@H](Cc1ccccc1)NS(=O)(=O)c1cccc(Cl)c1Cl` [Example 001010], the IC50 is greater than 10 µM.

Take `CC(C)(C)NC(=O)c1ccccc1CC[C@@H](O)[C@H](Cc1ccccc1)NS(=O)(=O)c1cccc2nonc12` [Example 001012]: the IC50 fell in the range of 0.1 to 10 µM.

For the compound `Cc1ccccc1S(=O)(=O)NC(=O)N[C@@H](Cc1ccccc1)[C@H](O)CCc1ccccc1C(=O)NC(C)(C)C` [Example 001014], the IC50 fell in the range of 0.1 to 10 µM.

In turn, `CC(C)(C)NC(=O)c1ccccc1CC[C@@H](O)[C@H](Cc1ccccc1)NC(=S)Oc1ccc(F)cc1` [Example 001017] showed an IC50 greater than 10 µM.

Consider `CC(C)(C)NC(=O)c1ccccc1CC[C@@H](O)[C@H](Cc1ccccc1)NC(=O)c1ccccc1Nc1ccccc1` [Example 001020], for which the IC50 was greater than 10 µM.

`COc1ccc(C(=O)c2ccccc2C(=O)N[C@@H](Cc2ccccc2)[C@H](O)CCc2ccccc2C(=O)NC(C)(C)C)c(O)c1` [Example 001034] had an IC50 of 0.1 to 10 µM.

As usually defined, the IC50 is the concentration that gives 50% inhibition. Low values mean greater potency in that assay, high ones weaker potency in that assay.
